From patent publication US4207308A, “Process for purifying iodinated bile acid conjugates” (priority 1977, dated 1980)

How the values were obtained:
[1] = tested on: antibodies from rabbits (anti BSA-cholylglycine conjugate), Ab 927; experiment: Antibody titer curves using cholylglycyl-125I-histamine (or 3H-cholylglycine) tracer; assay type: binding, rabbit
Experimental: Young adult male New Zealand white rabbits were immunized at multiple sites on the back at bi-weekly intervals using 1.0 ml of BSA-cholylglycine conjugate (50 μg) emulsified with an equal volume of Freund's adjuvant. Serum was harvested every 2 weeks beginning one month after the initial immunization. […] 1 mg bovine gamma globulin was included in each tube. […] The supernate (bound) was decanted into another tube and both the charcoal (free) and supernate (bound) tubes were counted in a γ-spectrometer (Elscint). Results were expressed as the bound/free (B/F) ratio. A standard curve was constructed and unknowns were quantitated from a standard curve run with each assay. Antibodies from six different rabbits were produced and tested.

Ab 927 [2] = experiment: Radioimmunoassay cross-reactivity / displacement of cholylglycyl-125I-histamine tracer (Specificity of Tracer and Antibody)
Ab 927 [3] = tested on: Ab 927

Molecule: Cholylglycyl-^125 I-histamine [cholylglycyl-125I-histamine]
- initial B/F (bound/free ratio) ([1]; 1:100 dilution, approximately 3000 CPM cholylglycyl-125I-histamine, four antibodies): 10.5 to 14.2
- Non-specific binding ([1]; CPM in supernate without antibody, unchanged as long as 6 months after iodination): 2-4%
- binding of tracer ([1]; corresponds to B/F 14.2, 1:100 dilution): 93%
- specificity (in words) (Ab 927 [2]): maintain a specificity toward the conjugated bile salts, particularly cholate and chenodeoxycholate conjugates

Molecule: C[C@H](CCC(=O)NCC(=O)NCCc1c[nH]cn1)[C@H]1CC[C@H]2[C@@H]3[C@H](O)C[C@@H]4C[C@H](O)CC[C@]4(C)[C@H]3C[C@H](O)[C@]12C [cholylglycylhistamine]
- Amount required for displacement relative to other bile salts (fold less) (Ab 927 [2]; FIG. 4, less than other bile salts): approximately 10 fold
- affinity (in words) (Ab 927 [2]; explanation for sensitivity not rising with titer): greater affinity

Molecule: C[C@H](CCC(=O)O)[C@H]1CC[C@H]2[C@@H]3CC[C@@H]4C[C@H](O)CC[C@]4(C)[C@H]3CC[C@]12C [Lithocholic acid]
- activity (Ab 927 [3]): 2%
